What is called half-life is the time needed for the level to fall by half in the phase considered.

In one series the test system is protein kinase A (PKA). The series can be described thus: PKA activity in brain regions and cerebral microvessels after GLP-1 infusion. It is filed as in vivo, rat. The protocol: Each rat received a systemic infusion of either saline or GLP-1 (Abcam, Cambridge, United Kingdom) (30 pmol/kg/min) via the jugular vein catheter for 10 min. Plasma samples were then collected and rats sacrificed via anesthetic overdose. Cerebral spinal fluid (CSF) and various brain regions (cerebellum, cortex, hippocampus, hypothalamus, and brain stem) were collected for further assays. Cerebral microvessels were isolated as described ([Austin et al., 2010]). Briefly, brain tissue was disrupted with a razor blade followed by passing through an 18G needle. Vessel fragments were harvested using dextran-gradient centrifugation, then collected on a 20 μm pore filter, washed to remove cell debris, and reconstituted in buffer. This was followed by passing through a 100 μm pore size filter. Brain vessels that can pass through the 100 μm filter were considered as cerebral microvessel and used for protein kinase A (PKA) activity assay. […]
(§1) All plasma and CSF samples collected during the study were frozen immediately and stored at −80°C until further analysis of GLP-1 concentration using a total GLP-1 ELISA kit (Merck Millipore, Billerica, MA, United States) ([Knezovic et al., 2018]). To measure PKA activity in brain tissue, cerebral microvessels, or cultured cells, samples were homogenized and lysed in PKA lysis buffer and activity determined using a Pep Tag® non-radioactive protein kinase assay kit (Promega, Madison, WI, United States) ([Christian et al., 2011]). […]
FIGURE 2 GLP-1 infusion increases PKA activity in various brain regions in both normal and vagotomized rats. […] PKA activities in various brain regions were determined in normal rats (A,B) and vagotomized rats (D,E). […] (B,E), Quantitative analysis (B, n = 7; *p < 0.05 vs. saline infusion, Student’s t test) (E, n = 6; *p < 0.05 vs. saline infusion, Student’s t test).
(§2) Each rat received a systemic infusion of either saline or GLP-1 (30 pmol/kg/min) for 10 min, GLP-1 concentrations in CSF and plasma were determined and cerebral microvessels were isolated. […] (D) Quantitative analysis of PKA activity (n = 6, *p < 0.05, Student’s t test).

Series [1] can be described thus: GLP-1 concentrations in plasma and CSF (total GLP-1 ELISA). It is filed as in vivo. The settings on record: rat, systemic infusion 30 pmol/kg/min for 10 min, n = 4. As for the experimental part: Each rat received a systemic infusion of either saline or GLP-1 (Abcam, Cambridge, United Kingdom) (30 pmol/kg/min) via the jugular vein catheter for 10 min. Plasma samples were then collected and rats sacrificed via anesthetic overdose. Cerebral spinal fluid (CSF) and various brain regions (cerebellum, cortex, hippocampus, hypothalamus, and brain stem) were collected for further assays. Cerebral microvessels were isolated as described ([Austin et al., 2010]). Briefly, brain tissue was disrupted with a razor blade followed by passing through an 18G needle. […]
as §1, §2
For orientation: An ELISA detects its analyte on a solid surface through an enzyme-linked reagent.

Series [2] is described as follows: Microvascular perfusion in hippocampus and skeletal muscle (contrast-enhanced ultrasound), with blood glucose and MAP. It is filed as in vivo. The settings on record: rat. As for the experimental part: After a 30–45 min baseline period to ensure hemodynamic stability and a stable level of anesthesia, baseline microvascular blood volume (MBV) and microvascular flow velocity (MFV), in the hippocampus and skeletal muscle were determined using contrast-enhanced ultrasound (CEU), as described previously ([Chai et al., 2010]; [Fu et al., 2013], [2017]). In brief, microbubbles (Definity; Lantheus Medical Imaging) were diluted with normal saline (1:10 vol:vol) and infused intravenously at a rate of 0.8 mL/h. Once the systemic microbubble concentrations reached steady state (∼6 min), high-power pulse-inversion ultrasound (HDI-5000; Philips Ultrasound) was used to image the microbubble signals in the hippocampus and the proximal adductor muscle group (adductor magnus and semimembranosus). Intermittent imaging was performed at pulsing intervals ranging from 0.5 to 10 s. At least three images were acquired at each pulsing interval, and the images obtained at 0.5 s were used as background. Pulsing interval vs. background-subtracted video intensity was fitted to the function y = A (1 − e^−βt, with y being video intensity at pulsing interval t. A as the plateau video intensity measures MBV and β represents the rate of microvascular filling (i.e., MFV). Microvascular blood flow (MBF) was calculated by multiplying MBV and MFV. All CEU images were analyzed using the QLAB software (Philips Medical Systems, Andover, MA, United States).
After the baseline hippocampal and muscle microvascular parameters were obtained, rats then received a continuous intravenous infusion of either saline or GLP-1 (30 pmol/kg/min) for 120 min. Hippocampal microvascular parameters (MBV, MFV, and MBF) were again determined every 30 min and muscle microvascular parameters at 120 min using CEU. Throughout the study, mean arterial blood pressure (MAP) was monitored via a sensor connected to the carotid catheter (Harvard Apparatus, Holliston, MA, United States, and AD Instruments, Inc., Colorado Springs, CO, United States). Inactin was infused at a variable rate to maintain steady levels of anesthesia and blood pressure throughout the study. Carotid arterial blood glucose concentrations were determined every 30 min using a Contour Next glucometer (BAYER). At the end of each study the rat was euthanized by an overdose of inactin.
FIGURE 8 GLP-1 infusion increases muscle but not […] microvascular perfusion. Each rat received a systemic infusion of saline or GLP-1 at 30 pmol/kg/min for 120 min and MBV, MFV and MBF were determined using contrast-enhanced ultrasound in both […] (A,B,C) and muscle (D,E,F) (n = 6, *p < 0.05, vs. control, Student’s t test).

The next series concerns DPP4. The following applies: plasma, degradation by DPP4; no reference given; cited from earlier work. From the text: GLP-1 receptors are expressed in multiple brain areas in rodents, primates, and humans and they are involved in learning, neuroprotection and regulation of appetite and satiety ([Wei and Mojsov, 1995]; [During et al., 2003]; [Richards et al., 2014]). Global knockout of the GLP-1 receptor in mice impairs synaptic plasticity and memory formation ([Abbas et al., 2009]). […] Indeed, pre-treatment of animals w ...

Where [3] appears, read: 30 pmol/kg/min i.v. for 120 min, contrast-enhanced ultrasound, n = 6.
Where [4] appears, read: 30 pmol/kg/min i.v. for 120 min, n = 6.
Setting [5] is: 30 pmol/kg/min i.v., at 120 min, contrast-enhanced ultrasound, n = 6, p < 0.05.

Glucagon-like peptide 1 [GLP-1]: the “PKA activity in brain microvessels” value in the series on protein kinase A (PKA) (isolated cerebral microvessels, rat, GLP-1 30 pmol/kg/min for 10 min, n = 6, p < 0.05) was “acutely increased”. Also, the “PKA activities in all brain regions” value with protein kinase A (PKA) (normal rats, GLP-1 30 pmol/kg/min infusion for 10 min vs saline, n = 7, p < 0.05) is listed as “significantly increased”. Besides, the “PKA activity in various brain regions” value with protein kinase A (PKA) (sham-operated and sub-diaphragmatic vagotomized rats, GLP-1 30 pmol/kg/min for 10 min, n = 6) was “rapid and robust increase”. For the same substance, in series [1], the “levels of GLP-1 in CSF” value was “remained undetectable” and the “plasma GLP-1 concentrations” value is given as “markedly increased”. In series [2] (setting [3]), the “hippocampal MBF” value is on record as “did not alter”, the “hippocampal MBV” value is “did not alter” and the “hippocampal MFV” value was “did not alter”. In series [2] (setting [4]), the “Blood glucose during the study” value was “remained stable” and the “MAP during the study” value is given as “remained stable”. In addition, in series [2] (30 pmol/kg/min i.v., at 120 min, contrast-enhanced ultrasound, n = 6), the MFV in muscle entry is on record as “without affecting”. In series [2] (setting [5]), the MBF in muscle entry is “markedly increase” and the MBV in muscle entry is given as “markedly increase”. For the same substance, the half-life in the series with DPP4 was about 2 min.

Values taken from publication PMC7274078, “Brain Endothelial Cells Regulate Glucagon-Like Peptide 1 Entry Into the Brain via a Receptor-Mediated Process” (Frontiers in Physiology, 2020).
